Source: patent US20260217701A1, “SELECTIVE BET INHIBITORS AND USES THEREOF” (Tay Therapeutics Limited, priority 2022, published 2026)

Test: SLE (lupus) model: body weight
Type: in vivo, MRL/MpJ-Faslpr mice
Method: Female MRL/MpJ-Faslpr mice (The Jackson Laboratory) were used to assess the efficacy of Compound A in treating lupus. Starting when animals were 10 weeks of age, protein concentration in urine was measured using urine dipsticks.
At the start of the study, each group in the study had two animals that were 9 weeks old, and all others were 10 weeks old. Dosing of all animals with the test compounds began when the older animals were 11 weeks old. […] […] Dosing was at a consistent time each dosing day throughout the study.
Compound A may be formulated as illustrated in Experimental Method A (see Table 2E.). […] A stock solution of Compound A in DMSO (stock solution concentration of Compound A of 40 mg/mL) was prepared and aliquots for weekly preparations were frozen at −20° C. On each preparation day, a stock solution aliquot was thawed and diluted with other vehicle components to the desired concentration. Formulated Compound A and vehicle were at room temperature for dosing.
The study began when the older animals were 11 weeks old, and concluded when the older animals were 19 weeks old. Body weight was recorded once a week, with the exception of two weight measurements taken the first week of the study (when the older animals were 11 weeks old). Proteinuria was measured in the urine of animals with urine dipsticks once a week, starting when the older animals were 10 weeks old. […] Blood samples were taken retro-orbitally at the start of the study to establish a baseline (15 animals, 3 per group), and when the older animals were 16 weeks (all animals) and when animals were 19 weeks (all animals) at the conclusion of the study. Blood urea nitrogen (BUN) was measured in all animals at study termination in blood samples. After blood collection, animals were euthanized, perfused with PBS, and the left kidneys were collected and weighed and fixed in 10% buffered formalin. Left kidneys were then processed to a formalin-fixed, paraffin-embedded (FFPE) block, and histology was analyzed in Periodic Acid-Schiff-stained sections (1 section per slide), using the criteria described in Alperovich et al., Lupus, 16:18-24 (2007). Right kidneys were weighed and snap-frozen at −80° C. Spleens were also collected and weighed. SLE in animals treated with a BET inhibitor and vehicle.

## Cn1cc(-c2ccccc2)c(-c2cn(C)c(=O)c3[nH]c(-c4cnn(C(F)(F)F)c4)cc23)cc1=O [Compound A, 6-methyl-4-(1-methyl-2-oxo-5-phenyl-1,2-dihydropyridin-4-yl)-2-(1-(trifluoromethyl)-1H-pyrazol-4-yl)-1,6-dihydro-7H-pyrrolo[2,3-c]pyridin-7-one]
1 mg/kg
  Relative end body weight (% of Week 11) ± SEM: 114.5% ± 1.5%
1 mg/kg and 10 mg/kg
  Weight gain relative to control groups: improved weight gains relative to the control groups
3 mg/kg
  Relative end body weight (% of Week 11) ± SEM: 110.7% ± 2.1%
10 mg/kg
  Relative end body weight (% of Week 11) ± SEM: 114.4% ± 1.6%
Compound A 1 mg/kg PO QD, Week 11
  Mean Body Weight: 35.2 g
Compound A 1 mg/kg PO QD, Week 12
  Mean Body Weight: 36.4 g
Compound A 1 mg/kg PO QD, Week 13
  Mean Body Weight: 37.6 g
Compound A 1 mg/kg PO QD, Week 14
  Mean Body Weight: 38.5 g
Compound A 1 mg/kg PO QD, Week 15
  Mean Body Weight: 38.9 g
Compound A 1 mg/kg PO QD, Week 16
  Mean Body Weight: 40.0 g
Compound A 1 mg/kg PO QD, Week 17
  Mean Body Weight: 39.5 g
Compound A 1 mg/kg PO QD, Week 18
  Mean Body Weight: 39.7 g
Compound A 1 mg/kg PO QD, Week 19
  Mean Body Weight: 40.2 g
Compound A 3 mg/kg PO QD, Week 11
  Mean Body Weight: 35.0 g
Compound A 3 mg/kg PO QD, Week 12
  Mean Body Weight: 35.0 g
Compound A 3 mg/kg PO QD, Week 13
  Mean Body Weight: 36.5 g
Compound A 3 mg/kg PO QD, Week 14
  Mean Body Weight: 37.4 g
Compound A 3 mg/kg PO QD, Week 15
  Mean Body Weight: 37.9 g
Compound A 3 mg/kg PO QD, Week 16
  Mean Body Weight: 38.7 g
Compound A 3 mg/kg PO QD, Week 17
  Mean Body Weight: 38.6 g
Compound A 3 mg/kg PO QD, Week 18
  Mean Body Weight: 38.1 g
Compound A 3 mg/kg PO QD, Week 19
  Mean Body Weight: 38.6 g
Compound A 10 mg/kg PO QD, Week 11
  Mean Body Weight: 35.1 g
Compound A 10 mg/kg PO QD, Week 12
  Mean Body Weight: 35.6 g
Compound A 10 mg/kg PO QD, Week 13
  Mean Body Weight: 37.1 g
Compound A 10 mg/kg PO QD, Week 14
  Mean Body Weight: 37.8 g
Compound A 10 mg/kg PO QD, Week 15
  Mean Body Weight: 38.8 g
Compound A 10 mg/kg PO QD, Week 16
  Mean Body Weight: 39.3 g
Compound A 10 mg/kg PO QD, Week 17
  Mean Body Weight: 39.3 g
Compound A 10 mg/kg PO QD, Week 18
  Mean Body Weight: 39.4 g
Compound A 10 mg/kg PO QD, Week 19
  Mean Body Weight: 39.9 g
